# Source: patent US10314843B2, “Combinations for the treatment of neoplasms using quiescent cell targeting and inhibitors of mitosis” (Felicitex Therapeutics, Inc., priority 2016, dated 2019)
# Experiments:
# Assay type in all cases: cell-based
# SW620 cells = test: FACS cell cycle distribution by DNA content (propidium iodide), SW620 cells in FBS- media; conditions: 24 hours in FBS- media, AZ191 2.5, 5, 10 μM, Compound I-7 1.25, 2.5, 5 μM
# Procedure: Cell cultures were seeded into 6-well plates at 3×10^5-6×10^5 cells/well; the plated number of cells depended on cell size and rate of proliferation, aiming for approximately 50% confluency. After seeding, the cells were allowed to attach for 24 hours while incubated at 37° C. in a humidified 5% CO2 atmosphere, and then treated with compounds for desired amount of time (usually 24 hours) incubating under same conditions. Then the cells were harvested by trypsinization, pooled with the floating cells, washed in PBS, and fixed in 70% ice-cold ethanol overnight. […] […] The complete protocol and composition of buffers are described in the literature (Darzynkiewicz Z, Juan G, and Srour E F (2004) Differential Staining of DNA and RNA (2004). Current Protocols in Cytometry, Chapter 7:Unit 7.3).
# The SW620 cells were cultured and treated as described in Example 1. For propidium iodide (PI) staining, manufacturer's protocol supplied with the Guava Cell Cycle Reagent for Flow Cytometry (EMD Millipore) was followed. The measurements were performed with Guava PCA-96 flow cytometer (EMD Millipore) using the green laser for excitation at 535 nm and monitoring emission at 617 nm.
# The SW620 cells were cultured, treated, and analyzed as described in Examples 1. […]
# DMS273 cells = test: CellTiter-Glo cell viability assay, DMS273 cells; conditions: Homo sapiens, DMS-273, DMS273 cells
# Source text: (§1) The following cell lines were obtained from ATCC and cultured according to the ATCC recommendations: DMS273—small cell lung cancer cell line; H1975—non-small cell lung cancer cell line harboring L858R and T790M mutations in EGFR TK; A549—a non-small cell lung cancer cell line with wild type EGFR; LNCap—prostate cancer cell line; SW620—colon cancer cell line; MiaPaCa2—pancreatic cancer cell line; PANC1—pancreatic cancer cell line; OVCAR3—ovarian cancer cell line; SK-OV-3—ovarian cancer cell line.
# (§2) For viability analysis, cells were seeded into 96-well plates at 2×10^3-6×10^3 cells/well; the plated number of cells depended on cell size and rate of proliferation aiming for approximately 50% confluency. After seeding, the cells were allowed to attach for 24 hours incubated at 37° C. in a humidified 5% CO2 atmosphere.
# (§3) The treatments were performed using at least 6 different concentrations of a compound in 1:3 serial dilutions in DMSO such that the DMSO concentration in the cell medium was <1%. The cell cultures were incubated for an additional 96 hours in 5% CO2 incubator at 37° C. Treatments were performed in triplicate. Results were analyzed by CellTiter-Glo™ Luminescent Cell Viability Assay (Promega, cat. #G7571) according to the manufacturer's instructions using Spectra MAX Gemini Spectrophotometer (Molecular Devices).
# PANC1 cells = test: CellTiter-Glo cell viability assay, PANC1 cells; conditions: Homo sapiens, PANC-1, PANC1 cells
# Source text: as §1, §2, §3
# H1975 cells = test: CellTiter-Glo cell viability assay, H1975 cells; conditions: Homo sapiens, NCI-H1975, H1975 cells
# Source text: as §1, §2, §3
# A549 cells = test: CellTiter-Glo cell viability assay, A549 cells; conditions: Homo sapiens
# Source text: as §1, §2, §3
Compound,"fraction of cells in quiescent state (G0), based on fraction of cells in G0+G1 phase (SW620 cells)",EC50 (DMS273 cells; Compound I-7 not present),EC50 (DMS273 cells; Compound I-7 present at 2 μM),EC50 (DMS273 cells; Compound I-7 present at 4 μM),EC50 (PANC1 cells; Compound I-7 not present),EC50 (PANC1 cells; Compound I-7 present at 2 μM),EC50 (PANC1 cells; Compound I-7 present at 4 μM),EC50 (H1975 cells; Compound I-7 not present),EC50 (H1975 cells; Compound I-7 present at 2 μM),EC50 (H1975 cells; Compound I-7 present at 4 μM),EC50 (A549 cells; Compound I-7 not present),EC50 (A549 cells; Compound I-7 present at 3 μM),EC50 (A549 cells; Compound I-7 present at 6 μM)
COc1cc(N2CCN(C)CC2)ccc1Nc1nccc(-c2cn(C)c3cnccc23)n1 [AZ191],no decrease in fraction of cells in quiescent state (G0),,,,,,,,,,,,
CC[C@@H]1C(=O)N(C)c2cnc(Nc3ccc(C(=O)NC4CCN(C)CC4)cc3OC)nc2N1C1CCCC1 [BI2536],,6.2 nM,4.1 nM,1.7 nM,7.3 nM,4.4 nM,2.5 nM,46.3 nM,17.3 nM,< 0.04 nM,6.2 nM,4.1 nM,1.7 nM
C[C@@H](Oc1cc(-n2cnc3ccc(CN4CCN(C)CC4)cc32)sc1C(N)=O)c1ccccc1C(F)(F)F [GSK461364],,430 nM,240 nM,120 nM,500 nM,300 nM,200 nM,1900 nM,970 nM,580 nM,1200 nM,500 nM,200 nM
